The values that follow come from ChEMBL document CHEMBL3507680, “University of Dundee, Gates Library screen for HepG2 cell viability”.

A short description of the series: Human HepG2 cell viability assay in 384 well format. The class given is toxicity, cell-based. The arrangement: dose 125 nL, time 70.5 hour; concentration not given beside the values. The conditions noted are these: HepG2 cells, read-out: Inhibition.
With `CCn1cc(CN2C[C@H]3CC[C@@H]2CN(C(=O)C2CCC2)C3)cn1`, the cytotoxicity at 70.5 h was -6.91%.
For `CC(=O)Nc1nc(C2CCN(C(C)C)CC2)cs1` the value was -1.18%; for `CCn1c(C)cc(C(=O)N2CCc3nnc(N)cc3C2)c1C`, -0.105%; for `NC(=O)c1cc(C2CCCN(CCCOc3ccccc3)C2)n[nH]1` (stereo not drawn), -10.9%.
Take `CC(C)n1cnnc1CN(C)CC1CCOC1` (stereo not drawn): the cytotoxicity at 70.5 h is -11.8%.
For `Cn1cccc1C(=O)NCc1ccnc(C2CCCOC2)n1` (stereo not drawn), the cytotoxicity at 70.5 h is -4.4%.
The figure for `Cc1noc(C)c1CN1CC[C@H]2C[C@@H](c3ccncn3)O[C@@H]2C1` is -10.7%.
For `CCc1cc(N2CCC(n3cc(C(=O)NCC(C)C)nn3)CC2)ncn1` the value was 0.723%; for `CCn1cncc1CNc1ccc(-c2nc(CC(C)C)no2)cn1`, 2.85%; for `CC(C)(C)c1cc(C[C@H]2CNCC[C@H]2CC(=O)NCc2cccs2)no1`, -6.24%.
For `CC(=O)N1CCCN(C(=O)NCCCc2cn[nH]c2C)CC1` the value was -2.68%; for `O=S(=O)(c1cc(F)ccc1F)n1cc(Cl)cn1`, -4.29%; for `COCCCN1CCC(NC2CSCCc3ccccc32)CC1` (stereo not drawn), 2.22%.
Turning to `OC1(CN2CCOC(Cn3cccn3)C2)CCCCC1` (stereo not drawn), the cytotoxicity at 70.5 h amounted to 0.595%.
As to `Cc1cc(CN2CCC(CNC(=O)c3ccc4[nH]cnc4c3)C2)[nH]n1` (stereo not drawn), the cytotoxicity at 70.5 h was -6.71%.
For `CCCc1nc(CN2CCN(C(C)c3nc(C4CC4)no3)CC2)no1` (stereo not drawn) the value was -5.86%; for `COc1ccc(-c2cc(C[C@@H]3C[C@H](N(C)C)C3(C)C)no2)cc1`, 5.02%.
For `CC(C(=O)O)n1nc(C(F)(F)F)c(Br)c1C1CC1` (stereo not drawn) the value was -14%; for `COCCNC(=O)CN1CCN(c2nc(C)cs2)C(C)C1` (stereo not drawn), -1.03%.
For `Cc1nn(C)c(C)c1C1COCCN1c1ncnc2sccc12` (stereo not drawn) the value was -11.4%; for `Cc1ccc(C(=O)N2CCC3(CCC(=O)N(C(C)C)C3)CC2)c(O)c1`, 29.9%.
With `O=C(O)[C@@H]1CCN(C(=O)c2ccccn2)[C@@H]1c1ccc(F)cc1`, the cytotoxicity at 70.5 h is -7.21%.
The figure for `Cc1noc(C)c1C(=O)N1CC[C@H]2C[C@@H](c3nccs3)O[C@@H]2C1` is -13.5%; for `O=C1CSc2ccc(C(=O)N3CCCC(n4cccn4)C3)cc2N1` (stereo not drawn) it is -0.55%.
With `Cc1nc(CNc2ccccc2CCC(F)(F)F)cs1`, the cytotoxicity at 70.5 h was -9.96%.
Turning to `CNC(=O)C1(c2cnccn2)CCCN1C(=O)c1ccc(F)cc1` (stereo not drawn), the cytotoxicity at 70.5 h worked out at 22.8%.
For `COc1ccc(CN2CCC(CO)(Cc3ccc(Cl)cc3)CC2)c(O)c1` the value was -11.2%; for `O=C(COCC(F)(F)F)N1CCCC(n2cccn2)C1` (stereo not drawn), -8.85%.
Consider `Cc1cc(C)n(C2CN(CC(=O)NCc3ccccn3)C2)n1`, for which the cytotoxicity at 70.5 h was -16.2%.
For `CC(=O)N1CCc2cc(C(=O)O)c(-c3ccsc3)nc2CC1` the value was -0.0308%; for `O=C(CN(CC1CCC1)CC(F)(F)F)N1CCOCC1`, -5.14%.
For the molecule `Cc1cc(CN(C)C(=O)c2cc(COc3ccccc3)[nH]n2)n[nH]1`, the cytotoxicity at 70.5 h was -3.12%.
Consider `O=C(CCc1ccco1)Nc1ncn(CC(=O)N2CCCCCC2)n1`, for which the cytotoxicity at 70.5 h was -2.03%.
For `Cc1nc(C)n(CC2CCCN2Cc2nnc(-c3ccco3)o2)n1` (stereo not drawn) the value was 11.1%.
In the case of `CN(CCCOc1ccccc1)S(=O)(=O)N1CCOCC1`, the cytotoxicity at 70.5 h was -12.8%.
On to `COc1cccc(CNc2nnc(C(C)(C)C)o2)c1OC`, for which the cytotoxicity at 70.5 h is -11.6%.
Take `Cc1cc(N(C)C)nc(C2(C)CCCN2C(=O)c2ccccc2)n1` (stereo not drawn): the cytotoxicity at 70.5 h was -8.94%.
The figure for `Cc1csc(C(C)(C)NCC(=O)N2CCCC(C(N)=O)C2)n1` (stereo not drawn) is 6.15%; for `COC(=O)c1ccc(-c2noc(CN(CCO)Cc3cccs3)n2)cc1` it is -10.2%.
For `CNC(=O)C1CN(c2cc(C)ncn2)CCN1Cc1ccccc1` (stereo not drawn) the value was 21.6%.
Consider `COc1ccc2[nH]cc(C(=O)CNc3nccs3)c2c1`, for which the cytotoxicity at 70.5 h is 14.4%.
`O=C(c1cccc(F)c1)N1CCCC1c1ncc2c(n1)CCNC2` (stereo not drawn): the cytotoxicity at 70.5 h was -4.38%.
The figure for `CCn1ncc2c1CCCC2NCc1cc(C)ccc1OC` (stereo not drawn) is -12.5%.
Regarding `CC(C)Nc1nc(O)cc(C(C)n2ncc3ccccc3c2=O)n1` (stereo not drawn), the cytotoxicity at 70.5 h is -5.33%.
With `CCOC(=O)C1CCN(C(=O)c2cc(Br)ccc2-n2cnnn2)CC1`, the cytotoxicity at 70.5 h is -6.49%.
The figure for `CCOCC(=O)N1CC[C@H]2OCC[C@@H](c3nnc(C)o3)[C@H]2C1` is 0.355%.
Consider `CN1CCOC(CNC(=O)C2(c3cccc(Cl)c3)CC2)C1` (stereo not drawn), for which the cytotoxicity at 70.5 h is -5.99%.
As for `COc1cccc(N2C(=O)CC3(CCNCC3)C2=O)c1`, the cytotoxicity at 70.5 h was -4.17%.
The figure for `COC[C@@H]1CC[C@H]2[C@H](CCN2S(=O)(=O)c2ccc(OC)cc2)O1` is -6.4%; for `O=C(Cn1ccnc1)N1C[C@@H]2CC[C@H](Oc3ccccc3)[C@@H]2C1` it is -3%; for `O=C(Cc1cccc(F)c1)N1C[C@H]2CN(Cc3ccccn3)C[C@H]2C1` it is -6.98%.
The figure for `Cc1ccccc1C(NC(=O)NCC1(O)CCC1)C1CC1` (stereo not drawn) is 5.34%; for `Cc1cnn(CC2CCCCN2Cc2cc(C)on2)c1` (stereo not drawn) it is -18.5%.
Consider `Clc1cncc(N2CCCC2c2nnc3n2CCCCC3)n1` (stereo not drawn), for which the cytotoxicity at 70.5 h was -17.1%.
Take `Cc1ncsc1C(=O)N(Cc1cccnc1)C1CC1`: the cytotoxicity at 70.5 h is 3.01%.
The figure for `CCn1cc(C2CCN(Cc3ccnc(N(C)C)c3)CC2)cn1` is -4.12%; for `COc1ccc(C(C)NC(=O)c2nn(C)c(C)c2Br)cc1` (stereo not drawn) it is -2.4%.
As for `O=C(Cn1cc(C2CC2)nn1)NC(c1ccc(Cl)cc1)C1CC1` (stereo not drawn), the cytotoxicity at 70.5 h was -8.06%.
The figure for `Cc1cnccc1N1CCCN(Cc2ccc(-c3cc[nH]n3)o2)CC1` is -5.27%; for `Cc1nc(CN2CCC(c3nc4cc(Cl)ccc4o3)CC2)oc1C` it is -19.4%.
Turning to `CCS(=O)(=O)c1ccc(NCc2csc(C(C)C)n2)cc1`, the cytotoxicity at 70.5 h was found to be 4.81%.
The figure for `CCn1cc(CN2CCCN(C(=O)CCCn3cncn3)CC2)cn1` is 1.08%.
Consider `CC(C)N1CCCC2(CCN(C(=O)COCC(F)(F)C(F)F)C2)C1=O` (stereo not drawn), for which the cytotoxicity at 70.5 h is -3.34%.
Take `CN(C)CCN1CCO[C@H]2CN(C(=O)c3ccsc3)C[C@H]21`: the cytotoxicity at 70.5 h is -6.87%.
With `CCOCCNC(=O)c1ccc(OC)cc1I`, the cytotoxicity at 70.5 h is -6.65%.
With `O=C(NCCc1ccncc1)c1cccc(S(=O)(=O)N[C@@H]2CCNC2)c1`, the cytotoxicity at 70.5 h was determined as 19%.
For `CCCn1ncc(C(=O)N2CCCC(OCc3ccccn3)C2)c1C` (stereo not drawn) the value was -4.73%; for `CCN1C(=O)C[C@@H]2[C@@H]1CCN2S(=O)(=O)c1cccc(C)c1`, 12.1%; for `CC(C)C(O)C(C)(C)CNC(=O)NCc1ccc(-n2cncn2)cc1` (stereo not drawn), -1.82%.
The figure for `Cn1c(SCC(N)=O)nnc1-c1csc2c1CCCC2` is -9.11%; for `Cc1csc(CN(C)C(=O)C2CCC(=O)N(CCN(C)C)C2)n1` (stereo not drawn) it is -3.99%; for `c1cnc(N2CCC3(COCc4cnc(-c5cccnc5)nc43)C2)nc1` (stereo not drawn) it is 19.5%.
With `CCc1ccsc1C(=O)NC(C#N)CC(C)C` (stereo not drawn), the cytotoxicity at 70.5 h was -2.59%.
The figure for `Cc1c(C(=O)N[C@@H]2CC[C@@H](N3CCCC3)[C@@H]2O)[nH]c2ccc(F)cc12` is 6.16%; for `O=C(N[C@@H]1CN(Cc2ccccc2)C[C@@H]2CCCO[C@@H]21)C1CC1` it is -1.76%.
For `CC1(CCC(=O)N2CCC(n3cc(C4(O)CCCC4)nn3)CC2)CC1` the value was 22.5%; for `Cc1ccc(CN(C)C(=O)CN2CCc3ccccc3C2)o1`, -6.98%; for `COc1cccc(C(CO)NC(=O)Cc2cccc(C)c2)c1` (stereo not drawn), -4.94%.
As to `CC(CO)N(C)C(=O)c1cn(-c2ccc(Br)cc2)cn1` (stereo not drawn), the cytotoxicity at 70.5 h was -7.34%.
Take `COCCNC(=O)Nc1ccc(-n2cncn2)c(C(F)(F)F)c1`: the cytotoxicity at 70.5 h is -3.51%.
Turning to `CCc1nncn1CCNC(=O)N1CCCC(Cc2nccn2C)C1` (stereo not drawn), the cytotoxicity at 70.5 h was determined as 32.8%.
As for `CN(C)CCN1CCN(Cc2ccco2)Cc2cccnc21`, the cytotoxicity at 70.5 h is -4.07%.
For `CN(Cc1n[nH]c2c1CCCC2)c1nc2c(c(=O)[nH]1)CCNCC2` the value was -4.95%; for `COc1c(CNC(c2ccccc2)c2nccn2C)c(C)nn1C` (stereo not drawn), -0.0475%; for `CNC(=O)c1coc(-c2csc(C)n2)c1`, -6.74%.
The figure for `O=C1CC(c2ccc(C(F)(F)F)cc2)c2c(n3ccsc3nc2=O)N1` (stereo not drawn) is -22.1%; for `O=C(c1ccnnc1)N1CC[C@H]2[C@H]1CCN2S(=O)(=O)C1CC1` it is -0.791%.
Take `O=C1CC[C@]2(CC[C@@H](NC(=O)NCc3ccccc3)CC2)N1`: the cytotoxicity at 70.5 h was 15.6%.
The figure for `CN(Cc1ccc(C#N)cc1)CC1CCS(=O)(=O)C1` (stereo not drawn) is -8.96%.
For `COc1cccc(Nc2nc(C3CCCNC3)c3ccccn23)c1` (stereo not drawn) the value was -7.29%.
For `O=C(C1CCOCC1)N1CCOCC(Cc2ncccn2)C1` (stereo not drawn) the value was -10.5%; for `COCCc1noc(CNC2CCCC(C)(C)C2)n1` (stereo not drawn), -4.63%; for `Cc1nc(NC(=O)N[C@H](CO)c2ccccc2)sc1C`, -15.6%.
Regarding `O=C(O)c1cc(-c2cncnc2)cc(S(=O)(=O)N2CCCCCC2)c1`, the cytotoxicity at 70.5 h was -10.5%.
`CC(Oc1ccccc1C(F)(F)F)C(=O)NCCCC(N)=O` (stereo not drawn): the cytotoxicity at 70.5 h was 11.1%.
For `Cc1occc1-c1nc(NC2CCCC2)ncc1-c1ccccn1` the value was 1.09%; for `CCc1noc(CN2CCC(c3ccnn3CCO)CC2)n1`, -5.37%; for `CCc1cnc(NCc2nc(CSC)no2)nc1`, 10.1%.
